Test results taken from patent US6107070A, “Human manganese superoxide dismutase proteins” (University of Florida, priority 1998, dated 2000).
Where a chain is given by its changes, count along the chain named. Values joined by “and” are separate entries in the source; they are usually repeats but may differ in a detail not shown here. Equal entries are not always repeated.

Legend:
Format in all cases: biochemical
[1] = target: T1, human manganese superoxide dismutase (hMn SOD) variant Y34F (Tyr 34 replaced by Phe) (Homo sapiens, UniProt P04179, Y58F); experiment: Decay of superoxide catalyzed by Y34F hMnSOD, pulse radiolysis
T1 construct: as a mature protein tagged with an extra Met at the amino terminus; made in house; host or cells: E. coli QC774 (SodA/SodB mutant), pTrc99A
T1 sequence (P04179 25-222 Y58F): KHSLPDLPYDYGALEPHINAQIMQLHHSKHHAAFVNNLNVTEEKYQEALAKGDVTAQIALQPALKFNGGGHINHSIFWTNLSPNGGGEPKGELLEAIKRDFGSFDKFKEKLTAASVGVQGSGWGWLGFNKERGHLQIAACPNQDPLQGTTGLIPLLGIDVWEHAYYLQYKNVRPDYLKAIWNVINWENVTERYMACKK
Description: Experiments were carried out at the Center for Fast Kinetics Research at the University of Texas at Austin using a 4-Mev van der Graaff accelerator. A single high-dose electron pulse was used to generate superoxide radical anions from oxygen in acqueous solutions containing 10 mM sodium formate as hydroxyl radical scavenger (Schwartz, 1981) and 50 μM EDTA in addition to buffer and enzyme. All pulse radiolysis experiments were carried out at 20 ° C. The dismutation of O2^- was followed spectrophotometrically from its absorbance at 250 nm (ε=2000M^1 cm^1, Rabani and Nielson, 1969) with a path length of 2.5 cm. Progress curves for each set of 6 to 9 experiments were averaged. Exposure to ultraviolet radiation was minimized by opening a mechanical shutter a fraction of a second before each pulse.
The kinetic mechanism of FIG. 8 used to describe the wild-type MnSOD can also describe catalysis by Y34F Mn SOD (FIG. 7), as shown by pulse radiolysis. […] In this stimulation, the breakdown of the enzyme-substrate complex for enzyme in the reduced state, represented by k3 in the scheme of FIG. 8, is much slower for Y34F compared with wild-type, whereas the values of k3 are the same for both enzymes. […] The rate constants in Y34F for actual formation of the dead-end complex itself, k5 and k5 are quite similar to those for wild-type.

[2] = target: T2, human manganese superoxide dismutase (hMn SOD) variant H30K (Homo sapiens, UniProt P04179, H54K); experiment: Disproportionation of superoxide by H30K hMnSOD, 20° C.; conditions: Table 4; pH 9.4, 20° C.
T2 construct: as a mature protein tagged with an extra Met at the amino terminus; made in house
T2 sequence (P04179 25-222 H54K): T1 sequence (P04179 25-222 Y58F) with H30K, F34Y

[3] = target: T3, human manganese superoxide dismutase (hMn SOD) variant Q143N (Gln 143 replaced by Asn), SEQ ID NO:3 (Homo sapiens, UniProt P04179, Q167N); experiment: Decay of superoxide catalyzed by Q143N hMnSOD, stopped-flow spectrophotometry at 5° C.
T3 construct: as a mature protein tagged with an extra Met at the amino terminus; made in house; host or cells: E. coli QC774 (SodA/SodB mutant), pTrc99A
T3 sequence (P04179 25-222 Q167N): T1 sequence (P04179 25-222 Y58F) with F34Y, Q143N
Description: (§1) Experiments were based on the stabilization of KO2 in aprotic solvent and the subsequent large dilution of this solution by an aqueous solution of enzyme in a stopped-flow apparatus, as described by McClune and Fee (1978). KO2 was dissolved in a mixture of dimethyl sulfoxide and […] (2:1 by volume; Aldrich, spectrophotometric grade) with solubility of KO2 enhanced with 18-crown-6 (Valentine and Curtis, 1975). The stopped-flow spectrophotometer (Kinetic Instruments, Ann Arbor, Mich.) was capable of efficient mixing of this solution with an acqueous solution of enzyme in buffer with a dead time between 1.5 and 2.0 ms. One drive syringe (capacity 50 μl) contained the aprotic solution of O2. This was diluted fifty-fold by the contents of a second syringe (capacity 2.5 ml) which contained enzyme, EDTA, and buffer. The decay of superoxide in initial velocity experiments and progress curves was monitored by its absorption at 250 to 300 nm. Stopped-flow experiments were carried out at […]. Four or more kinetic traces were averaged to reduce noise. Steady-state parameters were obtained by least-squares analysis of such data (Leatherbarrow (1987) "Enzfitter: a nonlinear regression data analysis program for the IBM PC" Elsevier BIOSOFT, Cambridge).

[4] = target: T4, human manganese superoxide dismutase (hMn SOD) variant Y34F (Tyr34Phe) (Homo sapiens, UniProt P04179, Y58F); experiment: Disproportionation of superoxide by Y34F hMnSOD, Example 3 (Tables 4 and 5), 20° C.
T4 construct: as a mature protein tagged with an extra Met at the amino terminus; made in house; host or cells: E. coli QC774 (SodA/SodB mutant), pTrc99A
T4 sequence (P04179 25-222 Y58F): T1 sequence (P04179 25-222 Y58F)
Description: as §1
In the present study, several novel hMnSOD proteins containing substitutions of His 30 (referring to the amino acid sequence of SEQ ID NO:2) were prepared by PCR site directed mutagenesis and purified by column chromatography, as described in the Materials and Methods section above, and as also described by Hsu et al. (1996) J. Biol. Chem. 271: 1768; and Hsieh et al. (1998) Biochemistry 37: 4731. In particular, His 30 was substituted with each of Ala, Asn, Ser and Gln. The resulting novel hMnSOD proteins containing a His 30 substitution were then assayed for enzymatic activity and product inhibition at 20° C. by measuring the absorbance of superoxide at 250 nm using stopped-flow spectrophotometry, as described above in the Materials and Methods section. […]

[5] = Table 1, pulse radiolysis, 20° C., pH 9.6 (Guan et al., 1997)
[6] = Table 3, KINSIM fit to pulse radiolysis data, 20° C., pH 9.6
[7] = FIG. 2, Michaelis-Menten fit, H2O, 50 mM glycine buffer, 1 mM EDTA, pH 9.4, 5° C.
[8] = Table 1, stopped-flow spectrophotometry, 5° C., pH 9.4
[9] = Table 2, KINSIM fit of FIG. 8 scheme to stopped-flow data, 5° C., pH 9.4
[10] = Table 4, 20° C., pH 9.4 per footnote

Compound: [O]O [superoxide]
- kcat [1, 5]: 3.3 ms^-1
- kcat /km [1, 5]: 8.7e+08 M⁻¹ s⁻¹
- k1 [1, 6]: 1000 s⁻¹
- k2 [1, 6]: 5000 s⁻¹
- k4 [1, 6]: 1000 M⁻¹ s⁻¹
- k5 [1, 6]: 200 s⁻¹
- k-1 [1, 6]: 2e+09 M⁻¹ s⁻¹
- k-3 [1, 6]: 2e+09 M⁻¹ s⁻¹
- k-4 [1, 6]: 10000 s⁻¹
- k-5 [1, 6]: 2 × 10^4
- kcat /km (diffusion controlled) ([1]; approximate value): ~10^9 M^-1 s^-1
- Km ([1]; obtained from Table 3 data and eqs 5-9 of Bull et al. (1991)): 4 µM
- kcat [2]: 0.74 ms^.1
- kcat /Km [2]: 0.80 μM^.1 S^.1
- kcat [3, 7]: 160 s⁻¹
- kcat /Km [3, 7]: 850000 M⁻¹ s⁻¹
- maximal value of Kcat /Km ([3]; FIG. 3, fit of pH profile pH 8.5 to 10.5, 5° C.): ~7×10^6 M^-1 s^-1 and 7±3×10^6 M^-1 s^-1
- maximal value of Kcat ([3]; FIG. 4, fit of pH profile, 5° C., in 1/s): 310±30
- kcat [3, 8]: 0.3 ms^-1
- kcat /km [3, 8]: 820000 M⁻¹ s⁻¹
- k1 [3, 9]: 2e+09 M⁻¹ s⁻¹
- k2 [3, 9]: 600 s⁻¹
- k3 [3, 9]: 2e+09 M⁻¹ s⁻¹
- k4 [3, 9]: 600 s⁻¹
- k-1 [3, 9]: 1.5e+06 s⁻¹
- k-4 [3, 9]: 1000 M⁻¹ s⁻¹
- k-5 ([3]; Table 2, KINSIM fit, dead-end complex, 5° C., pH 9.4): 200 s⁻¹
- k5 ([3]; Table 2, KINSIM fit, formation of dead-end complex, 5° C., pH 9.4): 20000 s⁻¹
- kcat /Km ([3]; observed at pH 9.4, 5° C.): 7×10^5 M^1 s^1
- maximal value of Kcat ([3]; pH dependence (FIG. 4)): ~300 s⁻¹
- kcat [4, 10]: 3.3 ms^.1
- kcat /Km [4, 10]: 870 μM^.1 S^.1
- ko /[E] (rate constant for the zero-order region of catalysis) ([4]; Table 5, pH 9.6, 20° C.): 88 S^.1
